# Results as given in patent US20230271933A1, “HETEROCYCLIC IMMUNOMODULATOR” (Beijing Innocare Pharma Tech Co., Ltd., priority 2020, published 2023).
# Tests used:
# [1] = test system: TNFα; assay: Inhibition of TNFα secretion in LPS-stimulated hPBMC (ELISA); type: cell-based; details: Homo sapiens, overnight, read-out: IC50 (nM) for the inhibition of the TNFa secretion
# Experimental: (§1) The immunomodulatory function of the compound of the present invention was evaluated by detecting its effect on the secretion amount of TNFα and IL-2 in cells from the human peripheral blood mononuclear cells (hPBMC) by the enzyme linked immunosorbent assay (ELISA) method.
# (§2) The peripheral blood of healthy volunteers was collected by using EDTA anticoagulant tubes, and diluted with phosphate buffered saline (PBS) containing 2% fetal bovine serum (Gibco, Cat. No. 10099-141) in an equal volume ratio. 30 mL of the resulting diluted sample was transferred into a Sepmate-50 centrifuge tube (Stemcell, Cat. No. 86450) to which 15 mL of a density-gradient centrifugation liquid (Sigma, Cat. No. 10771) had been added in advance, and centrifuged at room temperature at 1200×g for 10 minutes. The liquid containing PBMC in the upper layer was transferred to a new 50-mL centrifuge tube, and centrifuged at room temperature at 300×g for 8 minutes. The supernatant was discarded, and the resulting PBMC was resuspended to 5×10^6/mL by using RPMI 1640 medium (Gibco, Cat. No. 72400-047). 80 μL of the resulting suspension was added to each well in a 96-well plate.
# (§3) Each concentration was further diluted 50-fold with RPMI 1640 medium. 10 μL of each compound solution was added into the cells in the above 96-well plate. The 96-well plate was placed in an incubator, and the cells were cultured at 37° C. and 5% CO2 for 1 hour. 10 μL of LPS (Sigma, Cat. No. L-2880) with a concentration of 100 ng/mL was added, and the cells were continuously cultured in the incubator at 37° C. and 5% CO2 overnight. Supernatants were collected for the detection of TNFα.
# (§4) TNFα and IL-2 were detected respectively according to each instruction of the ELISA kits (R&D, Cat. No. DY210 and DY202, respectively) to obtain the OD450 values for each well. The group containing 0.2% DMSO medium was used as 0% inhibition or stimulation. The XLfit software was used to plot the compound inhibition or stimulation curve and calculate the corresponding IC50 or EC50.
# [2] = test system: NCI-H929 human myeloma cells; assay: Inhibition of the proliferation of NCI-H929 cells (luminescent cell viability, CTG); type: cell-based; details: 6 days, CellTiter-Glo
# Experimental: The effect of the compounds of the present invention on the proliferation of NCI-H929 human myeloma cells was evaluated by using a luminescent cell viability test experiment.
# The compound was dissolved and diluted to 5 mM in DMSO, and then serially diluted 4-fold in DMSO to a minimum concentration of 0.31 μM. Each concentration was further diluted 50-fold with RPMI 1640 medium (Thermo Fisher, Cat. No. 72400-047). If the IC50 value of the compound was relatively low, the initial concentration of the compound could be lowered.
# NCI-H929 cells (Nanjing Cobioer, Cat. No. CBP60243) were cultured in RPMI 1640 complete medium [containing 10% FBS (GIBCO, Cat. No. 10099-141) and 100 units/mL penicillin-streptomycin (Thermo Fisher, Cat. No. 15140122)]. Cells (15000 cells/mL) were plated in 90 μL of the complete medium in a 96-well plate and cultured overnight, and then 10 μL of the compound solution was added into each well. The cells were cultured in an incubator at 37° C. and 5% CO2 for 6 days. Then the cell culture plate was taken out and balanced to room temperature according to the instruction of the CellTilter-Glo (CTG) kit (Promega, Cat. No. G7572). 50 μL CTG reagent was added for complete lysis, the plate was placed at room temperature for 10 minutes, and the luminescence signal was read with a microplate reader (EnVision, Perkin Elmer). The group containing 0.2% DMSO medium was used as 0% inhibition. The XLfit software was used to plot the compound inhibition curve and calculate the inhibitory IC50 value.
# [3] = test system: IL-2; assay: Stimulation of IL-2 secretion in anti-CD3-stimulated hPBMC (ELISA); type: cell-based, human; details: anti-CD3 antibody, 72 hours
# Experimental: as §1, §2, §3
# The above-mentioned 96-well plate can also be placed in an incubator, and the cells were cultured at 37° C. and 5% CO2 for 1 hour. 10 μL of anti-CD3 antibody (Thermo Fisher, Cat. No. 14-0037-82) with a concentration of 500 ng/mL was added, and the cells were continuously cultured in the incubator at 37° C. and 5% CO2 for 72 hours. Supernatants were collected for the detection of IL-2.
# as §4
# [4] = In vivo pharmacokinetic experiment in rats; details: male Sprague-Dawley rats, n = 3; for F: PO 5 mpk vs IV 1 mpk; for clearance / Vd / AUC(0-t) / Cmax: rat, plasma; for clearance / Vd: 1 mg/kg, IV 1 mpk; for Vd: read-out: VSS; for AUC(0-t) / Cmax: 5 mg/kg, PO 5 mpk
# Experimental: The compound to be tested was dissolved in 5% DMA+20% Solutol+75% Saline vehicle to prepare a 0.5 mg/mL administration solution.
# 2 mL/kg of the administration solution was administered through the intravenous injection (IV) at a dose of 1 mg/kg to three fed male Sprague-Dawley rats, respectively. Blood samples were collected at 0.083, 0.25, 0.5, 1, 2, 4, 8 and 24 hours after administration. 10 mL/kg of the administration solution was administered by gavage (PO) at a dose of 5 mg/kg to other three fed male Sprague-Dawley rats, respectively. Blood samples were collected at 0.25, 0.5, 1, 2, 4, 8 and 24 hours after administration.
# The concentration of the compound to be tested in plasma was obtained with the LC-MS/MS quantitative analysis with an API-4500 mass spectrometer, and the limit of quantitation (LOQ) for the plasma was 1 ng/mL.
Compound,IC50 [1] [nM],"IC50 ([2]; Homo sapiens, NCI-H929, 144 h) [nM]",EC50 ([3]; Homo sapiens) [nM],also measured
"O=C1CCC(N2Cc3c(OCc4ccc(C5(N6CCOCC6)CC5)cc4)cccc3C2=O)C(=O)N1 (stereo not drawn) [Compound 2, 3-(4-((4-(1-morpholinocyclopropyl)benzyl)oxy)-1-oxoisoindolin-2-yl)piperidine-2,6-dione]",7.8,35,10,
"CC(C)(c1ccc(COc2cccc3c2CN([C@H]2CCC(=O)NC2=O)C3=O)cc1)N1CCOCC1 [Compound 5, (S)-3-(4-((4-(2-morpholinopropan-2-yl)benzyl)oxy)-1-oxoisoindolin-2-yl)piperidine-2,6-dione]",,7.8,,F [4]: 4%; clearance [4]: 110 mL/min/kg; Vd [4]: 3.3 L/kg; AUC(0-t) [4]: 8.8 ng·h/mL; Cmax [4]: 1.6 ng/mL
"CC(c1ccc(COc2cccc3c2CN([C@H]2CCC(=O)NC2=O)C3=O)cc1)N1CC2CC1CO2 (single isomer, unassigned) [Compound 19]",0.8,,,IC50 [2]: 3.8 nM; EC50 [3]: 11 nM
"C[C@H](c1ccc(COc2cccc3c2CN([C@H]2CCC(=O)NC2=O)C3=O)cc1)N1CCN(C(=O)C2CC2)CC1 [Compound 11, (S)-3-(4-((4-((R)-1-(4-(cyclopropanecarbonyl)piperazin-1-yl)ethyl)benzyl)oxy)-1-oxoisoindolin-2-yl)piperidine-2,6-dione]",,2.2,,
"C[C@H](c1ccc(COc2cccc3c2CN([C@H]2CCC(=O)NC2=O)C3=O)cc1)N1CCN(S(C)(=O)=O)CC1 [Compound 13, (S)-3-(4-((4-((R)-1-(4-(methylsulfonyl)piperazin-1-yl)ethyl)benzyl)oxy)-1-oxoisoindolin-2-yl)piperidine-2,6-dione]",,1.2,,
"C[C@H](c1ccc(COc2cccc3c2CN([C@H]2CCC(=O)NC2=O)C3=O)cc1)N1CCN(c2ccncc2F)CC1 [Compound 20, (S)-3-(4-((4-((R)-1-(4-(3-fluoropyridin-4-yl)piperazin-1-yl)ethyl)benzyl)oxy)-1-oxoisoindolin-2-yl)piperidine-2,6-dione]",,0.1,1.9,
"C[C@H](c1ccc(COc2cccc3c2CN([C@H]2CCC(=O)NC2=O)C3=O)cc1)N1CCN(C2CC2)CC1 [Compound 12, (S)-3-(4-((4-((R)-1-(4-cyclopropylpiperazin-1-yl)ethyl)benzyl)oxy)-1-oxoisoindolin-2-yl)piperidine-2,6-dione]",,0.3,,
"C[C@@H](c1ccc(COc2cccc3c2CN(C2CCC(=O)NC2=O)C3=O)cc1)N1CCOCC1 (stereo partly drawn) [Compound 4, 3-(4-((4-((S)-1-morpholinoethyl)-benzyl)oxy)-1-oxoisoindolin-2-yl)piperidine-2,6-dione]",0.9,5,4.1,
"C[C@H](c1ccc(COc2cccc3c2CN(C2CCC(=O)NC2=O)C3=O)cc1)N1CCOCC1 (stereo partly drawn) [Compound 3, 3-(4-((4-((R)-1-morpholinoethyl)benzyl)oxy)-1-oxoisoindolin-2-yl)piperidine-2,6-dione]",1.1,7,8,F [4]: 20%; clearance [4]: 61 mL/min/kg; Vd [4]: 4.2 L/kg; AUC(0-t) [4]: 270 ng·h/mL; Cmax [4]: 105 ng/mL

# The next lines start with results.
IC50 [1] [nM],"IC50 ([2]; Homo sapiens, NCI-H929, 144 h) [nM]",EC50 ([3]; Homo sapiens) [nM],Compound,also measured
3.7,0.3,,"C[C@H](c1ccc(COc2cccc3c2CN([C@H]2CCC(=O)NC2=O)C3=O)cc1)N1CCN(c2ccc(F)cc2F)CC1 [Compound 17, (S)-3-(4-((4-((R)-1-(4-(2,4-difluorophenyl)piperazin-1-yl)ethyl)benzyl)oxy)-1-oxoisoindolin-2-yl)piperidine-2,6-dione]",
,1.1,,"N#Cc1ccc(N2CCN(C3(c4ccc(COc5cccc6c5CN([C@H]5CCC(=O)NC5=O)C6=O)cc4)CC3)CC2)c(F)c1 [Compound 9, (S)-4-(4-(1-(4-(((2-(2,6-dioxopiperidin-3-yl)-1-oxoisoindolin-4-yl)oxy)methyl)phenyl)-cyclopropyl)piperazin-1-yl)-3-fluorobenzonitrile]",
,1.4,,"C[C@H](c1ccc(COc2cccc3c2CN([C@H]2CCC(=O)NC2=O)C3=O)cc1)N1CCN(C)CC1 [Compound 14, (S)-3-(4-((4-((R)-1-(4-methylpiperazin-1-yl)ethyl)benzyl)oxy)-1-oxoisoindolin-2-yl)piperidine-2,6-dione]",
2.1,11,46,"N#CC(c1ccc(COc2cccc3c2CN([C@H]2CCC(=O)NC2=O)C3=O)cc1)N1CCOCC1 (stereo partly drawn) [Compound 10, 2-(4-(((2-((S)-2,6-dioxopiperidin-3-yl)-1-oxoisoindolin-4-yl)oxy)methyl)phenyl)-2-morpholinoacetonitrile]",
,7.7,,"CC(c1ccc(COc2cccc3c2CN(C2CCC(=O)NC2=O)C3=O)cc1)N1CCOCC1 (stereo not drawn) [Compound 1, 3-(4-((4-(1-morpholinoethyl)benzyl)oxy)-1-oxoisoindolin-2-yl)piperidine-2,6-dione]",
,0.5,4,"CC(C)(c1ccc(COc2cccc3c2CN([C@H]2CCC(=O)NC2=O)C3=O)cc1)N1CCN(c2ccc(C#N)cc2F)CC1 [Compound 8, (S)-4-(4-(2-(4-(((2-(2,6-dioxopiperidin-3-yl)-1-oxoisoindolin-4-yl)oxy)methyl)phenyl)-prop-2-yl)piperazin-1-yl)-3-fluorobenzonitrile]",
1.7,0.4,19,"C[C@H](c1ccc(COc2cccc3c2CN([C@H]2CCC(=O)NC2=O)C3=O)cc1)N1CCN(c2ccncn2)CC1 [Compound 15, (S)-3-(1-oxo-4-((4-((R)-1-(4-(pyrimidin-4-yl)piperazin-1-yl)ethyl)benzyl)oxy)isoindolin-2-yl)piperidine-2,6-dione]",
2.8,0.2,3.2,"C[C@@H](c1ccc(COc2cccc3c2CN([C@H]2CCC(=O)NC2=O)C3=O)cc1)N1CCN(c2ccc(C#N)cc2F)CC1 [Compound 7, 4-(4-((S)-1-(4-(((2-((S)-2,6-dioxopiperidin-3-yl)-1-oxoisoindolin-4-yl)oxy)methyl)phenyl)-ethyl)piperazin-1-yl)-3-fluorobenzonitrile]",F [4]: 19%; clearance [4]: 13 mL/min/kg; Vd [4]: 2.4 L/kg; AUC(0-t) [4]: 1200 ng·h/mL; Cmax [4]: 121 ng/mL
,3.1,11,"CC(c1ccc(COc2cccc3c2CN([C@H]2CCC(=O)NC2=O)C3=O)cc1)N1CC2CC1CO2 (single isomer, unassigned) [Compound 18]",
